# Source: patent US6949513B2, “Polypeptides of covalently linked synthetic bioactive peptide analog(s) for treatment of cancer” (Dabur Research Foundation, priority 2001, dated 2005)
# Positions of bridges follow the written chain, without caps; N, C: chain ends. Non-standard residues stand in square brackets, D forms with d. Residues, ends and D or L forms follow the SMILES beside them. Pen = CC(C)(S)[C@H](N)C(=O)O; Orn = NCCC[C@H](N)C(=O)O; Ac5c = NC1(C(=O)O)CCCC1; Aib = CC(C)(N)C(=O)O
# Experiments:
# MiaPaCa.2 (Pancreas) = assay: three day MTT cytotoxicity assay, MiaPaCa.2; assay type: cell-based, human; conditions: 72 hours
# Description: (§1) SEQ ID NO: 5 and SEQ ID NO: 7 were tested for cytotoxicity against 6 human tumor cell lines. Briefly, a three day MTT cytotoxicity assay was performed, which is based on the principle of uptake of MTT (3-(4,5-dimethylthiazol-2-yl)-2,5-diphenyl tetrazolium bromide), a tetrazolium salt, by the metabolically active cells where it is metabolized by active mitochondria into a blue colored formazan product that is read spectrophoto-metrically. MTT was dissolved in phosphate buffered saline with a pH of 7.4 to obtain an MTT concentration of 5 mg/ml; the resulting mixture was filtered through a 0.22 micron filter to sterilize and remove a small amount of insoluble residue. For each type of tumor cell, 20,000 to 50,000 cells were seeded in a 96-well culture plate and incubated with the drug in a CO2 incubator for 72 hours. The final concentration range of SEQ ID NO: 5 and SEQ ID NO: 7 was 1 nM to 10 μM. The drug was added at time 0, 24 and 48 hours. Control cells not treated with the drug were similarly incubated. The assay was terminated after 72 hours by adding 100 ug (20 ul) of MTT to each well, then incubating for additional one hour, and finally adding 50 ul of 10% SDS-0.01N HCl to each well to lyse the cells and dissolve formazan. After incubating for one hour, the plate was read spectrophotometrically at 540 nm and the cytotoxicity percentage calculated. The following Tables 1 and 2 show the dose response of SEQ ID NO: 5 and SEQ ID NO: 7 respectively along with their respective ED50 values on different tumor cell lines.
# PTC (Colon) = assay: three day MTT cytotoxicity assay, PTC; assay type: cell-based, human; conditions: 72 hours
# Description: as §1
# MOLT-4 (Leukemia) = assay: three day MTT cytotoxicity assay, MOLT-4; assay type: cell-based, human; conditions: 72 hours
# Description: as §1
# [1] = system: PTC (colon) tumor xenografts; assay: antitumor activity on PTC (colon) tumor xenografts grown in nude mice; assay type: in vivo, Balb/c athymic mice; conditions: 50 μg twice a day (total 100 μg), 14 days, compared to untreated mice
# Description: PTC (colon) tumor xenografts were initiated in Balb/c athymic mice by subcutaneous inoculation of a single cell suspension of PTC cells(15×10^6 cells/[…]). When the average tumor volume reached around 2000 mm^3 the tumor-bearing mice were divided into three groups of 3 animals each. Two groups were randomly assigned for SEQ ID NO: 5 and SEQ ID NO: 7 treatment while the third group served as control. SEQ ID NO: 5 and SEQ ID NO:7 were prepared at a concentration of 250 μg/ml so as to deliver a dose of 50 μg per 200 μl. The injections were given twice a day at 12 hour intervals so as to deliver a total dose of 100 μg. The treatment was continued daily for a period of 14 days. The anti-tumor activity of SEQ ID NO: 5 and SEQ ID NO: 7 was monitored by measuring tumor volumes every fourth day and calculating volumes using the formula 0.4×W^2×L (W=smaller dia, L=larger dia,).
# MCF-7 (Breast) = assay: three day MTT cytotoxicity assay, MCF-7; assay type: cell-based, human; conditions: 72 hours
# Description: as §1
# KB (Oral) = assay: three day MTT cytotoxicity assay, KB; assay type: cell-based, human; conditions: 72 hours
# Description: as §1
# L132 (Lung) = assay: three day MTT cytotoxicity assay, L132; assay type: cell-based, human; conditions: 72 hours
# Description: as §1
# trypsin = trypsin digestion of the polypeptide; assay type: in vitro ADME; conditions: trypsin 1:25 w/w, 37° C., pH 8.0-8.5
# Description: On controlled digestion of the polypeptide peptide (SEQ ID NO:5), with enzyme trypsin, for ˜15 minutes, 3 major peaks were identifiable on analytical HPLC.
# Briefly, the peptide was weighed, dissolved in NH4HCO3 buffer (pH 8.0) and mixed with freshly made enzyme trypsin (1 mg/ml in water) in a ratio of 1:25 (w/w) of enzyme: substrate, according to published protocol (Ref.: Methods in Mol. Bio., Vol. 32, Basic protein and peptide protocols, Enzymatic methods for cleaving proteins). The digestion mixture was incubated at 37° C. Aliquots were taken at different time points and analyzed on analytical HPLC (Shimadzu, Japan). The 15′ enzyme digest sample was picked up for analysis by MALDI-MS.
Compound,Percent cytotoxicity (MiaPaCa.2 (Pancreas); 1 nM),Percent cytotoxicity (MiaPaCa.2 (Pancreas); 10 nM),Percent cytotoxicity (MiaPaCa.2 (Pancreas); 100 nM),Percent cytotoxicity (MiaPaCa.2 (Pancreas); 1 μM),Percent cytotoxicity (MiaPaCa.2 (Pancreas); 10 μM),Percent cytotoxicity (PTC (Colon); 1 nM),Percent cytotoxicity (PTC (Colon); 10 nM),Percent cytotoxicity (PTC (Colon); 100 nM),Percent cytotoxicity (PTC (Colon); 1 μM),Percent cytotoxicity (PTC (Colon); 10 μM),Percent cytotoxicity (MOLT-4 (Leukemia); 1 nM),Percent cytotoxicity (MOLT-4 (Leukemia); 10 nM),Percent cytotoxicity (MOLT-4 (Leukemia); 100 nM),Percent cytotoxicity (MOLT-4 (Leukemia); 1 μM),Percent cytotoxicity (MOLT-4 (Leukemia); 10 μM),Tumor regression [1],Percent cytotoxicity (MCF-7 (Breast); 1 nM),Percent cytotoxicity (MCF-7 (Breast); 10 nM),Percent cytotoxicity (MCF-7 (Breast); 100 nM),Percent cytotoxicity (MCF-7 (Breast); 1 μM),also measured
"CSCC[C@H](NC(=O)[C@H](CC(C)C)NC(=O)[C@H](CCCCN)NC(=O)[C@H](CCCCN)NC(=O)[C@H](CC(C)C)NC(=O)[C@H](Cc1c[nH]cn1)NC(=O)C(C)(C)NC(=O)[C@@H](NC(=O)[C@H](C)NC(=O)[C@H](Cc1c[nH]c2ccccc12)NC(=O)[C@H](CCC(N)=O)NC(=O)[C@@H](Cc1ccccc1)NC(=O)[C@H](CCCCN)NC(=O)[C@H](CCCCN)NC(=O)C1(NC(=O)[C@H](CC(C)C)NC(=O)[C@@H](Cc2c[nH]c3ccccc23)NC(=O)[C@H](Cc2ccccc2)NC(=O)[C@@H](Cc2c[nH]c3ccccc23)NC(=O)[C@H](CCC(N)=O)NC(=O)[C@@H](Cc2ccccc2)NC(=O)[C@@H]2CCCN2C(=O)[C@H](CCCCN)NC(=O)[C@@H]2CCCN2C(=O)[C@H](N)CCCNC(=N)N)CCCC1)C(C)C)C(=O)N[C@@H](Cc1ccc(O)cc1)C(=O)N1CCC[C@H]1C(=O)N[C@H](C(=O)N[C@@H](Cc1ccc(O)cc1)C(=O)N[C@@H](CC(C)C)C(=O)N[C@@H](CCCCN)C(=O)N[C@@H](CCCCN)C(=O)N[C@H](Cc1ccccc1)C(=O)N[C@H]1CSSC(C)(C)[C@@H](C(=O)N[C@H](C(N)=O)[C@@H](C)O)NC(=O)C2(CCCC2)NC(=O)[C@H](CCCN)NC(=O)[C@@H](Cc2c[nH]c3ccccc23)NC(=O)[C@H](Cc2ccc(O)cc2)NC1=O)[C@@H](C)O [SEQ ID NO: 7, P3-Lys-Lys-P2-Lys-Lys-P1-Lys-P4] (H-[dR]PKP[dF]Q[dW]F[dW]L[Ac5c]KK[dF]QWAV[Aib]HLKKLMYPTYLKK[dF]CY[dW][Orn][Ac5c][Pen]T-NH2; disulfide 34-39)",24.9 ± 2.8,22.9 ± 1.4,23.8 ± 2.9,28.8 ± 1.9,27.8 ± 2.8,13.5 ± 1.8,18.7 ± 0.5,23.5 ± 3.5,28.5 ± 2.1,17.9 ± 1.9,23.7 ± 1.6,34.9 ± 4.9,46.0 ± 4.9,54.3 ± 4.9,88.5 ± 6.8,48.7%,18.9 ± 2.0,19.0 ± 0.5,22.9 ± 1.4,23.6 ± 2.9,Percent cytotoxicity (MCF-7 (Breast); 10 μM): 31.4 ± 3.7; Percent cytotoxicity (KB (Oral); 1 nM): 13.9 ± 1.9; Percent cytotoxicity (KB (Oral); 10 nM): 23.9 ± 1.8; Percent cytotoxicity (KB (Oral); 100 nM): 34.8 ± 3.9; Percent cytotoxicity (KB (Oral); 1 μM): 54.3 ± 5.8; Percent cytotoxicity (KB (Oral); 10 μM): 82.8 ± 5.4; Percent cytotoxicity (L132 (Lung); 1 nM): 9.0 ± 0.6; Percent cytotoxicity (L132 (Lung); 10 nM): 10.4 ± 0.4; Percent cytotoxicity (L132 (Lung); 100 nM): 13.3 ± 0.1; Percent cytotoxicity (L132 (Lung); 1 μM): 14.9 ± 0.6; Percent cytotoxicity (L132 (Lung); 10 μM): 23.1 ± 0.9
"CSCC[C@H](NC(=O)[C@H](CC(C)C)NC(=O)[C@H](CCCCN)NC(=O)[C@H](CCCCN)NC(=O)C1(NC(=O)[C@H](CC(C)C)NC(=O)[C@@H](Cc2c[nH]c3ccccc23)NC(=O)[C@H](Cc2ccccc2)NC(=O)[C@@H](Cc2c[nH]c3ccccc23)NC(=O)[C@H](CCC(N)=O)NC(=O)[C@@H](Cc2ccccc2)NC(=O)[C@@H]2CCCN2C(=O)[C@H](CCCCN)NC(=O)[C@@H]2CCCN2C(=O)[C@@H](CCCNC(=N)N)NC(=O)[C@H](CCCCN)NC(=O)[C@H](CCCCN)NC(=O)[C@@H](NC(=O)[C@H]2NC(=O)C3(CCCC3)NC(=O)[C@H](CCCN)NC(=O)[C@@H](Cc3c[nH]c4ccccc34)NC(=O)[C@H](Cc3ccc(O)cc3)NC(=O)[C@@H](NC(=O)[C@H](N)Cc3ccccc3)CSSC2(C)C)[C@@H](C)O)CCCC1)C(=O)N[C@@H](Cc1ccc(O)cc1)C(=O)N1CCC[C@H]1C(=O)N[C@H](C(=O)N[C@@H](Cc1ccc(O)cc1)C(=O)N[C@@H](CC(C)C)C(=O)N[C@@H](CCCCN)C(=O)N[C@@H](CCCCN)C(=O)N[C@H](Cc1ccccc1)C(=O)N[C@@H](CCC(N)=O)C(=O)N[C@@H](Cc1c[nH]c2ccccc12)C(=O)N[C@@H](C)C(=O)N[C@H](C(=O)NC(C)(C)C(=O)N[C@@H](Cc1c[nH]cn1)C(=O)N[C@@H](CC(C)C)C(N)=O)C(C)C)[C@@H](C)O [SEQ ID NO: 5, P4-Lys-Lys-P3-Lys-Lys-P1-Lys-P2] (H-[dF]CY[dW][Orn][Ac5c][Pen]TKK[dR]PKP[dF]Q[dW]F[dW]L[Ac5c]KKLMYPTYLKK[dF]QWAV[Aib]HL-NH2; disulfide 2-7)",24.2 ± 2.7,37.8 ± 4.6,48.2 ± 4.8,59.6 ± 4.9,84.5 ± 6.3,16.5 ± 1.6,14.2 ± 2.2,16.8 ± 1.0,21.7 ± 2.9,27.9 ± 2.8,10.4 ± 0.7,18.7 ± 1.9,34.7 ± 4.7,54.3 ± 5.2,94.5 ± 6.1,73.7%,29.7 ± 3.8,28.2 ± 4.3,35.3 ± 4.8,59.4 ± 4.8,Percent cytotoxicity (MCF-7 (Breast); 10 μM): 85.4 ± 5.0; Percent cytotoxicity (KB (Oral); 1 nM): 10.6 ± 1.2; Percent cytotoxicity (KB (Oral); 10 nM): 18.2 ± 1.9; Percent cytotoxicity (KB (Oral); 100 nM): 30.7 ± 3.9; Percent cytotoxicity (KB (Oral); 1 μM): 43.1 ± 5.3; Percent cytotoxicity (KB (Oral); 10 μM): 98.3 ± 5.7; time in which the polypeptide disappeared completely on incubation with trypsin (trypsin): ~5 h; Percent cytotoxicity (L132 (Lung); 1 nM): 20.5 ± 3.2; Percent cytotoxicity (L132 (Lung); 10 nM): 21.5 ± 3.9; Percent cytotoxicity (L132 (Lung); 100 nM): 22.2 ± 2.8; Percent cytotoxicity (L132 (Lung); 1 μM): 28.2 ± 3.1; Percent cytotoxicity (L132 (Lung); 10 μM): 48.8 ± 3.6
